Source: publication PMC8204404 (Structure(London, England:1993), 2021)
Non-standard residues stand in square brackets, D forms with d. Residues, ends and D or L forms follow the SMILES beside them. No end group written: not given here. *: point of attachment. 5FAM = O=C1OC2(c3ccc(O)cc3Oc3cc(O)ccc32)c2ccc(C(=O)*)cc21; pT = C[C@@H](OP(=O)(O)O)[C@H](N)C(=O)O; pS = N[C@@H](COP(=O)(O)O)C(=O)O

T1: CHK1-KD (CHK1 construct consisting of only the kinase domain, CHK1(1-290)) (Homo sapiens, UniProt O14757)
T1 sequence (O14757 1-290): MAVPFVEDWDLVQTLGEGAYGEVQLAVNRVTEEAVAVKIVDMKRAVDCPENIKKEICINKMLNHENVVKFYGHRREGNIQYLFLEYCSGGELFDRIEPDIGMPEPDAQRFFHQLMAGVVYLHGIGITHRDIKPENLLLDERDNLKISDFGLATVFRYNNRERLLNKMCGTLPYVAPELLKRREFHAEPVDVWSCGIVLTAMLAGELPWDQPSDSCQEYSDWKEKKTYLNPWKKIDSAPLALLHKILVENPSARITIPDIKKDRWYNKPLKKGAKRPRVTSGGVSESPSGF

T2: CHK1-KD (CHK1 construct consisting of only the kinase domain) (Homo sapiens, UniProt O14757)
T2 sequence (O14757 1-290): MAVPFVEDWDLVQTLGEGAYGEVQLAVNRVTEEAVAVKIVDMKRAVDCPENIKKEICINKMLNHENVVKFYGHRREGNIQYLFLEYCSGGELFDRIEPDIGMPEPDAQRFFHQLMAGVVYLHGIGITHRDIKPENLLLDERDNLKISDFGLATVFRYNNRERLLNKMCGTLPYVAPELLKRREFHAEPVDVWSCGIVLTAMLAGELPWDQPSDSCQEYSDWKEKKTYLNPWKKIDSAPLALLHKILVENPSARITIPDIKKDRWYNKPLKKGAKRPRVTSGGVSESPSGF

T3: CHK1 kinase domain (CHK1-KD), STREP-(3C)-CHK1(1–290)-HIS (human, UniProt O14757 1-290)
T3 sequence: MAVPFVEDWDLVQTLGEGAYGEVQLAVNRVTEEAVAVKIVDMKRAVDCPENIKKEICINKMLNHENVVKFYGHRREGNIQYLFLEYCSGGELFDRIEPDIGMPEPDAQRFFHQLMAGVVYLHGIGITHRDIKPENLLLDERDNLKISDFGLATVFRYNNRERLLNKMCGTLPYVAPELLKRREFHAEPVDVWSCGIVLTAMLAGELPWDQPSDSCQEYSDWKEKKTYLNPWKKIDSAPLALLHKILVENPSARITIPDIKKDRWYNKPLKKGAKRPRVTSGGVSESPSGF

B1: Flu-CLASPIN_pS945 peptide (peptide)
peptide: GGMEELLNLCSGKFTSQ
modifications: not fully specified

Experiments:
[1] = molecular target: T1, CHK1-KD (CHK1 construct consisting of only the kinase domain, CHK1(1-290)); experiment: Fluorescence polarization binding of CLASPIN peptides to CHK1-KD; conditions: FP, phosphorylated peptide
[2] = molecular target: T2, CHK1-KD (CHK1 construct consisting of only the kinase domain); assay type: binding
[3] = molecular target: T3, CHK1 kinase domain (CHK1-KD), …; experiment: fluorescence polarisation
[4] = molecular target: B1; experiment: fluorescence polarisation

Row | Molecule | affinity for CHK1-KD (in words) [1] | binding result [3] | other results
1 | CSCC[C@H](NC(=O)CNC(=O)CNC(=O)c1ccc2c(c1)C(=O)OC21c2ccc(O)cc2Oc2cc(O)ccc21)C(=O)N[C@@H](CCC(=O)O)C(=O)N[C@@H](CCC(=O)O)C(=O)N[C@@H](C)C(=O)N[C@@H](CC(C)C)C(=O)N[C@@H](C)C(=O)N[C@@H](CC(C)C)C(=O)N[C@@H](CS)C(=O)N[C@@H](COP(=O)(O)O)C(=O)NCC(=O)N[C@@H](CO)C(=O)N[C@@H](Cc1ccccc1)C(=O)N1CCC[C@H]1C(=O)N[C@H](C(=O)N[C@@H](CC(=O)O)C(=O)O)[C@@H](C)O [pS982] (5FAM-GGMEEALALC[pS]GSFPTD-OH) | high nanomolar range | – | –
2 | CSCC[C@H](NC(=O)CNC(=O)CNC(=O)c1ccc2c(c1)C(=O)OC21c2ccc(O)cc2Oc2cc(O)ccc21)C(=O)N[C@@H](CCC(=O)O)C(=O)N[C@@H](CCC(=O)O)C(=O)N[C@@H](CC(C)C)C(=O)N[C@@H](CC(C)C)C(=O)N[C@@H](CC(N)=O)C(=O)N[C@@H](CC(C)C)C(=O)N[C@@H](CS)C(=O)N[C@@H](COP(=O)(O)O)C(=O)NCC(=O)N[C@@H](CCCCN)C(=O)N[C@@H](Cc1ccccc1)C(=O)N[C@H](C(=O)N[C@@H](CO)C(=O)N[C@@H](CCC(N)=O)C(=O)O)[C@@H](C)O [pS945] (5FAM-GGMEELLNLC[pS]GKFTSQ-OH) | high nanomolar range | – | –
3 | CSCC[C@H](NC(=O)CNC(=O)CNC(=O)c1ccc2c(c1)C(=O)OC21c2ccc(O)cc2Oc2cc(O)ccc21)C(=O)N[C@@H](CC(=O)O)C(=O)N[C@@H](CCC(=O)O)C(=O)N[C@@H](CC(C)C)C(=O)N[C@@H](CC(C)C)C(=O)N[C@@H](CC(=O)O)C(=O)N[C@@H](CC(C)C)C(=O)N[C@@H](CS)C(=O)N[C@H](C(=O)NCC(=O)N[C@@H](CCCCN)C(=O)N[C@@H](Cc1ccccc1)C(=O)N[C@H](C(=O)N[C@@H](CO)C(=O)N[C@@H](CCC(N)=O)C(=O)O)[C@@H](C)O)[C@@H](C)OP(=O)(O)O [pT916] (5FAM-GGMDELLDLC[pT]GKFTSQ-OH) | high nanomolar range | – | –
4 | MEELLNLC[pS]GKFTSQ [CLASPIN pS945 peptide] | – | – | effect on affinity of CHK1-KD for CDC25C substrate peptide [2]: no significant difference
5 | B1 | – | binds | –
6 | GGMDELLDLCTGKFTSQ (not fully specified; fluorescein on the N-terminus; phosphothreonine at 916 (pT916)) [Flu-CLASPIN_pT916 peptide] | – | binds | –
7 | GGMEEALALCSGSFPTD (not fully specified; fluorescein on the N-terminus; phosphoserine at 982 (pS982)) [Flu-CLASPIN_pS982 peptide] | – | binds | –
8 | full-length CHK1, STREP-(3C)-CHK1-HIS, treated with λ-phosphatase (enzyme) MAVPFVEDWDLVQTLGEGAYGEVQLAVNRVTEEAVAVKIVDMKRAVDCPENIKKEICINKMLNHENVVKFYGHRREGNIQYLFLEYCSGGELFDRIEPDIGMPEPDAQRFFHQLMAGVVYLHGIGITHRDIKPENLLLDERDNLKISDFGLATVFRYNNRERLLNKMCGTLPYVAPELLKRREFHAEPVDVWSCGIVLTAMLAGELPWDQPSDSCQEYSDWKEKKTYLNPWKKIDSAPLALLHKILVENPSARITIPDIKKDRWYNKPLKKGAKRPRVTSGGVSESPSGFSKHIQSNLDFSPVNSASSEENVKYSSSQPEPRTGLSLWDTSPSYIDKLVQGISFSQPTCPDHMLLNSQLLGTPGSSQNPWQRLVKRMTRFFTKLDADKSYQCLKETCEKLGYQWKKSCMNQVTISTTDRRNNKLIFKVNLLEMDDKILVDFRLSKGDGLEFKRHFLKIKGKLIDIVSSQKIWLPAT | – | – | fold lower affinity than CHK1-KD [4]: 2 fold
